Data: US12428399B2, “Non-hygroscopic crystalline salts of a pyrazole compound, and pharmaceutical compositions and use thereof” (Yissum Research Development Company of the Hebrew …, priority 2019, dated 2025)
Where a name gives a salt, the structure may show the parent alone. Read-outs that look alike come from different tables or passages of the source.

Assays:
[1] = system: Ser 45 β-catenin phosphorylation; p53 and β-catenin protein expression; conditions: cited from earlier work
[2] = system: Myc, MDM2, and MCL1; conditions: cited from earlier work
[3] = biological target: CK1α (Homo sapiens, UniProt P48729); conditions: cited from earlier work
CK1α, sequence (P48729 whole entry): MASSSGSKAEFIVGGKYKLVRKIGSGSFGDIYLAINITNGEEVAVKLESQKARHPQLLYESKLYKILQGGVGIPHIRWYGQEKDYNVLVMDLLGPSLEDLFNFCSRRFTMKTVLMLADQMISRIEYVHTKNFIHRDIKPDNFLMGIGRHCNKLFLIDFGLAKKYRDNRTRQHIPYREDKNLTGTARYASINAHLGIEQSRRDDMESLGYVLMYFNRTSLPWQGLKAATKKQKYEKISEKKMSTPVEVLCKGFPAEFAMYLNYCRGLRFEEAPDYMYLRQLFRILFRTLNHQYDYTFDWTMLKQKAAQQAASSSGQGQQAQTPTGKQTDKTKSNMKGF

[4] = Solubility by aliquot addition of test solvent with visual inspection; format: physicochemical; conditions: solution from solubility test
From the text: Whether dissolution had occurred was judged by visual inspection after addition of each solvent aliquot.

[5] = Dynamic vapor sorption (DVS) analysis of salts; format: physicochemical; conditions: for loss upon drying at 5% RH / gain from 5 to 95% RH / loss from 95 to 5% RH: DVS isotherm graph; for gain from 5 to 95% RH: adsorption cycle; for loss from 95 to 5% RH: desorption cycle
Protocol: The crystalline adipate, benzoate, and tosylate salts were characterized with XRPD, DSC, TGA, and DVS. The DVS analyses were carried out using TA Instruments Q5000 Dynamic Vapor Sorption analyzer. The instrument was calibrated with standard weights and a sodium bromide standard for humidity.

[6] = system: acute myeloid leukemia (AML); conditions: AML mouse models and human-patient-derived xenograph mouse models; cited from earlier work
[7] = Bulk density of the ditosylate salt; format: physicochemical
[8] = indicated by DVS isotherm graph

Molecule: Cn1ncc(-c2nc(N[C@H]3CC[C@H](N)CC3)ncc2Cl)c1CC1CC1 [the Compound, (1r,4r)-N^1-(5-chloro-4-(5-(cyclopropylmethyl)-1-methyl-1H-pyrazol-4-yl)pyrimidin-2-yl)cyclohexane-1,4-diamine]
- Ser 45 β-catenin phosphorylation [1]: reduces
- p53 and β-catenin protein expression [1]: increases
- expression of key cancer initiating genes, including Myc, MDM2, and MCL1 [2]: significantly reduces
- CK1α inhibition [3]: inhibitor

Molecule: Cn1ncc(-c2nc(NC3CCC(N)CC3)ncc2Cl)c1CC1CC1 (stereo not drawn) [benzoate salt, (1r,4r)-N^1-(5-chloro-4-(5-(cyclopropylmethyl)-1-methyl-1H-pyrazol-4-yl)pyrimidin-2-yl)cyclohexane-1,4-diamine]
- pH of Solution ([4]; listed as Benzoate): 4.31
- loss upon drying at 5% RH [5]: 0.02%
- gain from 5 to 95% RH [5]: 1.20%
- loss from 95 to 5% RH [5]: 1.30%

Molecule: (1r,4r)-N^1-(5-chloro-4-(5-(cyclopropylmethyl)-1-methyl-1H-pyrazol-4-yl)pyrimidin-2-yl)cyclohexane-1,4-diamine [adipate salt]
- pH of Solution [4]: 4.73
- loss upon drying at 5% RH [5]: 0.05%
- gain from 5 to 95% RH [5]: 1.05%
- loss from 95 to 5% RH [5]: 1.11%
- hygroscopicity [5, 8]: not hygroscopic

Molecule: Cl.Cl.Cn1ncc(-c2nc(N[C@H]3CC[C@H](N)CC3)ncc2Cl)c1CC1CC1 [dihydrochloride salt, (1r,4r)-N^1-(5-chloro-4-(5-(cyclopropylmethyl)-1-methyl-1H-pyrazol-4-yl)pyrimidin-2-yl)cyclohexane-1,4-diamine dihydrochloride, reference compound]
- pH of Solution [4]: 1.55
- loss upon drying at 5% RH [5]: 1.2%
- gain from 5 to 95% RH [5]: 17%
- loss from 95 to 5% RH [5]: 16%
- hygroscopicity ([5]; background statement, no method given there): highly hygroscopic
- hygroscopicity [5, 8]: highly hygroscopic
- treating acute myeloid leukemia (AML) [6]: effective

Molecule: Cn1ncc(-c2nc(NC3CCC(N)CC3)ncc2Cl)c1CC1CC1 (stereo not drawn) [ditosylate salt, (1r,4r)-N^1-(5-chloro-4-(5-(cyclopropylmethyl)-1-methyl-1H-pyrazol-4-yl)pyrimidin-2-yl)cyclohexane-1,4-diamine]
- bulk density [7]: 0.377 g/mL
- Assay by HPLC (as free base) (25° C./60% RH, 6-Month): 100.5 % w/w
- Purity by HPLC (25° C./60% RH, 6-Month): 99.8 % area
- Water contectnt by Karl Fisher (25° C./60% RH, 6-Month): 0.41 % w/w
- pTSA content by HPLC (25° C./60% RH, 6-Month): 48.6 % w/w
- Assay by HPLC (as free base) (25° C./60% RH, Initial): 100.5 % w/w
- Purity by HPLC (25° C./60% RH, Initial): 99.8 % area
- Water contectnt by Karl Fisher (25° C./60% RH, Initial): 0.41 % w/w
- pTSA content by HPLC (25° C./60% RH, Initial): 49.9 % w/w
- Assay by HPLC (as free base) (40° C./75% RH, 6-Month): 100.3 % w/w
- Purity by HPLC (40° C./75% RH, 6-Month): 99.8 % area
- Water contectnt by Karl Fisher (40° C./75% RH, 6-Month): 0.58 % w/w
- pTSA content by HPLC (40° C./75% RH, 6-Month): 49.5 % w/w
- Assay by HPLC (as free base) (40° C./75% RH, Initial): 100.5 % w/w
- Purity by HPLC (40° C./75% RH, Initial): 99.8 % area
- Water contectnt by Karl Fisher (40° C./75% RH, Initial): 0.41 % w/w
- pTSA content by HPLC (40° C./75% RH, Initial): 49.9 % w/w
- pH of Solution [4]: 5.82
- hygroscopicity [5, 8]: not hygroscopic
